From patent US10988523B2, “Modified lipidated Relaxin B chain peptides and their therapeutic use” (Sanofi, priority 2018, dated 2021)
*1 amine or outer side, *2 acyl side, *3 side chain or, on linkers, in order; H or OH if unused. Where a SMILES comes first, the peptide text is derived from it. Side-chain parts run from the residue outwards. [ ]: non-standard residue; d: D form. The star is where a group is joined. PEG12 = NCCOCCOCCOCCOCCOCCOCCOCCOCCOCCOCCOCCOCCC(=O)O; γGlu = O=C(O)[C@H](CCC(=O)[*:2])N[*:1]; Stearoyl = CCCCCCCCCCCCCCCCCC(=O)*; Palmitoyl = CCCCCCCCCCCCCCCC(=O)*; αMeK = C[C@](N)(CCCCN)C(=O)O; Nle = CCCC[C@H](N)C(=O)O; AEEA = NCCOCCOCC(=O)O; Aib = CC(C)(N)C(=O)O

What was measured:
RXFP1 = target: T1, RXFP1 (Homo sapiens, UniProt Q9HBX9); assay: OVCAR5 cAMP assay (HTRF), RXFP1 agonist activity; format: cell-based; details: for EC50: OVCAR5 cells, cAMP HTRF, read-out: EC50 (nM), OVCAR 5 cells (cAMP); for Emax: OVCAR-5, maximal cAMP relative to H2-relaxin maximum (100%), read-out: EMax, OVCAR 5 cells (cAMP)
T1 construct: OVCAR5 cells expressing endogenous RXFP1; endogenous in cells; host or cells: OVCAR5 cells
T1 sequence (Q9HBX9 1-757): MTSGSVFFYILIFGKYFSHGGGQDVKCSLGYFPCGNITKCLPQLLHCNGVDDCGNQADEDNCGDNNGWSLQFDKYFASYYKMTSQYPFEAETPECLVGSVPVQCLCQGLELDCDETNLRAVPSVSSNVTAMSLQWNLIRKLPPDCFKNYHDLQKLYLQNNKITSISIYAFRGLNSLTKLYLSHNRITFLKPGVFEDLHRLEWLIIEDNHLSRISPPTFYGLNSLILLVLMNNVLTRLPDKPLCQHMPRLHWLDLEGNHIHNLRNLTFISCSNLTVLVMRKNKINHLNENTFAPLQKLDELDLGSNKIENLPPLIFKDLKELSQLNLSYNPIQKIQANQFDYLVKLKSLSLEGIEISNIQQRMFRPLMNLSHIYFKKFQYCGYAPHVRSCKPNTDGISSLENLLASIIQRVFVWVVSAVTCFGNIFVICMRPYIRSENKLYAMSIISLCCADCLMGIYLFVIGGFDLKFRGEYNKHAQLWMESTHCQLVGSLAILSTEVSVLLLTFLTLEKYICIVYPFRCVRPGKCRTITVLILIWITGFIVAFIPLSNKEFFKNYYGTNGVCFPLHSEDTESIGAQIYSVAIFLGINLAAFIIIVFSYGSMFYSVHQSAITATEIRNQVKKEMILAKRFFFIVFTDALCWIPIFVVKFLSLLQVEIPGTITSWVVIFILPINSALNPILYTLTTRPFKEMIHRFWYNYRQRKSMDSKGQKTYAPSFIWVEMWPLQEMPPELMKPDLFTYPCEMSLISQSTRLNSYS
Outline: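 cAMP accumulation readout: after 1 mM IBMX for 40 min, endogenous-RXFP1 OVCAR5 cells got rising peptide concentrations without FCS, 30 min, 37° C, then lysis with HTRF cAMP reagents. Nonlinear regression gave EC50; Emax expressed relative to H2-relaxin maximum, same occasion.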

[1] = Pharmacokinetic (PK) determination after i.v. or s.c. administration to rats; format: in vivo, Sprague Dawley rats; details: Sprague Dawley, Rat PK; for C0 / half-life: iv, 1 mg/kg i.v.; for C0: extrapolated plasma concentration at t=0, read-out: C0; for half-life / Cmax / Tmax / bioavailability: plasma; for half-life: read-out: T½ (converted); for Cmax / Tmax: sc, 3 mg/kg s.c.; for bioavailability: subcutaneous, 3 mg/kg s.c. vs 1 mg/kg i.v., dose-corrected AUC ratio
Method: Prior to the testing of a peptide batch, its purity (HPLC-UV) was determined. Dose was corrected for presence of salts, solvent and purity.
Sprague Dawley rats were dosed with study peptide at a dose of 1 mg/kg intravenously (i.v.) or 3 mg/kg subcutaneously (s.c.) as a solution in PBS (0.2 mg/ml and 0.6 mg/ml respectively).
Plasma samples were analyzed after protein precipitation via liquid chromatography mass spectrometry (LC/MS).
PK parameters and half-life were calculated using Phoenix 64 (WinNonlin 6.4)-Pharsight (Certara™) (non-compartment model). Values below the limit of quantification (BLQ) were replaced by zero for subsequent calculations and PK analysis.
T½: in-vivo half life, time required for test compound plasma concentration to be divided by two during the PK experiment.
C0: Extrapolated test compound plasma concentration at t=0 time point (i.v. route).
Cmax: maximal test compound plasma concentration at the indicated time point (s.c. route).
Tmax: Time point where Cmax is attained.
F %: s.c. vs i.v. bioavailability, dose-corrected area under curve (AUC) s.c. route divided by AUC i.v.

Compound | EC50 (RXFP1) | Emax (RXFP1) | C0 [1] | half-life [1] | Cmax [1] | Tmax [1] | bioavailability [1]
CCCCCCCCCCCCCCCCCC(=O)N[C@@H](CCC(=O)N[C@@H](CCC(=O)N[C@@H](CCC(=O)N[C@@H](CCC(=O)NCCCC[C@H](NC(=O)COCCOCCNC(=O)COCCOCCNC(=O)COCCOCCNC(=O)[C@H](CCCCNC(C)=O)NC(=O)[C@H](CCCCN)NC(=O)[C@H](CCCNC(=N)N)NC(=O)[C@](C)(CCCCN)NC(=O)[C@H](CO)NC(=O)[C@H](Cc1c[nH]c2ccccc12)NC(=O)[C@@H](NC(=O)[C@H](CO)NC(=O)[C@H](CCCC)NC(=O)CNC(=O)[C@H](CCC(=O)O)NC(=O)C(C)(C)NC(=O)C(C)(C)NC(=O)[C@@H](NC(=O)[C@H](CCCCNC(C)=O)NC(=O)[C@H](C)NC(=O)[C@H](CCCNC(=N)N)NC(=O)[C@@H](NC(=O)[C@H](CCCCN)NC(=O)[C@H](CCC(=O)O)NC(=O)[C@H](CCCNC(=N)N)NC(=O)CNC(=O)[C@H](CCC(=O)O)NC(=O)[C@H](CC(C)C)NC(C)=O)C(C)C)[C@@H](C)CC)[C@@H](C)O)C(N)=O)C(=O)O)C(=O)O)C(=O)O)C(=O)O [compound 16] (Ac-LEGREKVRAK(Ac)I[Aib][Aib]EG[Nle]STWS[αMeK]RKK(Ac)[AEEA][AEEA][AEEA]K([γGlu-γGlu-γGlu-γGlu-Stearoyl])-NH2) | 0.02 nM | 87% | 2.65 µM | 203 min | 1880 nM | 8 h | 53%
CCCCCCCCCCCCCCCC(=O)N[C@@H](CCC(=O)N[C@@H](CCC(=O)N[C@@H](CCC(=O)N[C@@H](CCC(=O)NCCCC[C@H](NC(=O)COCCOCCNC(=O)COCCOCCNC(=O)COCCOCCNC(=O)[C@H](CCCCNC(C)=O)NC(=O)[C@H](CCCCN)NC(=O)[C@H](CCCNC(=N)N)NC(=O)[C@](C)(CCCCN)NC(=O)[C@H](CO)NC(=O)[C@H](Cc1c[nH]c2ccccc12)NC(=O)[C@@H](NC(=O)[C@H](CO)NC(=O)[C@H](CCCC)NC(=O)CNC(=O)[C@H](CCC(=O)O)NC(=O)C(C)(C)NC(=O)C(C)(C)NC(=O)[C@@H](NC(=O)[C@H](CCCCNC(C)=O)NC(=O)[C@H](C)NC(=O)[C@H](CCCNC(=N)N)NC(=O)[C@@H](NC(=O)[C@H](CCCCN)NC(=O)[C@H](CCC(=O)O)NC(=O)[C@H](CCCNC(=N)N)NC(=O)CNC(=O)[C@H](CCC(=O)O)NC(=O)[C@H](CC(C)C)NC(C)=O)C(C)C)[C@@H](C)CC)[C@@H](C)O)C(N)=O)C(=O)O)C(=O)O)C(=O)O)C(=O)O [compound 17] (Ac-LEGREKVRAK(Ac)I[Aib][Aib]EG[Nle]STWS[αMeK]RKK(Ac)[AEEA][AEEA][AEEA]K([γGlu-γGlu-γGlu-γGlu-Palmitoyl])-NH2) | 0.17 nM | 95% | 3.5 µM | 348 min | 2400 nM | 8 h | 73%
CCCCCCCCCCCCCCCC(=O)N[C@@H](CCC(=O)N[C@@H](CCC(=O)N[C@@H](CCC(=O)NCCCC[C@H](NC(=O)CCOCCOCCOCCOCCOCCOCCOCCOCCOCCOCCOCCOCCNC(=O)[C@H](CCCCN)NC(=O)[C@H](CCCNC(=N)N)NC(=O)C(C)(C)NC(=O)[C@H](CO)NC(=O)[C@H](Cc1c[nH]c2ccccc12)NC(=O)[C@@H](NC(=O)[C@H](CO)NC(=O)[C@H](CCCC)NC(=O)CNC(=O)[C@H](CCC(=O)O)NC(=O)C(C)(C)NC(=O)C(C)(C)NC(=O)[C@@H](NC(=O)[C@H](CCC(N)=O)NC(=O)[C@H](C)NC(=O)[C@H](CCCNC(=N)N)NC(=O)[C@@H](NC(=O)[C@H](CCCCN)NC(=O)[C@H](CCC(=O)O)NC(=O)[C@H](CCCNC(=N)N)NC(=O)CNC(=O)[C@H](CCC(=O)O)NC(=O)[C@H](CC(C)C)NC(C)=O)C(C)C)[C@@H](C)CC)[C@@H](C)O)C(N)=O)C(=O)O)C(=O)O)C(=O)O [compound 24] (Ac-LEGREKVRAQI[Aib][Aib]EG[Nle]STWS[Aib]RK[PEG12]K([γGlu-γGlu-γGlu-Palmitoyl])-NH2) | – | 74% | 3.7 µM | 384 min | 1800 nM | 5 h | 81%
